Experimental data as given in ChEMBL document CHEMBL2073811, “Uptake of the mycotoxin ochratoxin A in liver cells occurs via the cloned organic anion transporting polypeptide” (J Pharmacol Exp Ther, 1996).

Legend:
[1] = target: T1, Solute carrier organic anion transporter family member 1A1 (Rattus norvegicus, UniProt P46720); assay: TP_TRANSPORTER: inhibition of Ochratoxin A uptake (OTA: 1 uM, CRC-220: 100uM) in Xenopus laevis oocytes; type: functional, cell-based; conditions: oocyte
T1 sequence (P46720 whole entry): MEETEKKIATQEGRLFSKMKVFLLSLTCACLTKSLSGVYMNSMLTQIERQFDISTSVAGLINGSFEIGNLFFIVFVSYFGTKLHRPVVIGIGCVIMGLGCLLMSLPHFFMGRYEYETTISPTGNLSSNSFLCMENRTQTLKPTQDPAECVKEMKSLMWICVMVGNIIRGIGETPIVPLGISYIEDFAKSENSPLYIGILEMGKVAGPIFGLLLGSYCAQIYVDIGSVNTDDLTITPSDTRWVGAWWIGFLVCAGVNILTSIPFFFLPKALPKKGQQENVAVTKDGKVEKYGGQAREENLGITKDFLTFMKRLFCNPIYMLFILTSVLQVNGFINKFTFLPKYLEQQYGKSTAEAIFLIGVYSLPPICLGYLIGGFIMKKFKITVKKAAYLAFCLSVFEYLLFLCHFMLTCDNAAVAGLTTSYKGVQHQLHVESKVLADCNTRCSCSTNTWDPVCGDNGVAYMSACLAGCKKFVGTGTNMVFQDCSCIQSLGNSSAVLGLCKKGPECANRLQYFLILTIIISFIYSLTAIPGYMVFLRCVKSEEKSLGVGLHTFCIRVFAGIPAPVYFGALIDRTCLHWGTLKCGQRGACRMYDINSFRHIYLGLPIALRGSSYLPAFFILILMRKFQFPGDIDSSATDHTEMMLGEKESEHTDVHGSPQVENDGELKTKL

[2] = target: T1, Solute carrier organic anion transporter family member 1A1; assay: TP_TRANSPORTER: uptake in Xenopus laevis oocytes; type: functional, cell-based, Oocyte; conditions: Xenopus laevis oocytes expressing the transporter
[3] = target: T1, Solute carrier organic anion transporter family member 1A1; assay: TP_TRANSPORTER: inhibition of Ochratoxin A uptake (OTA: 1 uM, E1S: 100uM) in Xenopus laevis oocytes; type: functional, cell-based; conditions: oocyte
[4] = target: T1, Solute carrier organic anion transporter family member 1A1; assay: TP_TRANSPORTER: inhibition of Ochratoxin A uptake (OTA: 1 uM, GC: 100uM) in Xenopus laevis oocytes; type: functional, cell-based; conditions: oocyte
[5] = target: T1, Solute carrier organic anion transporter family member 1A1; assay: TP_TRANSPORTER: inhibition of Ochratoxin A uptake (OTA: 1 uM, BSP: 100uM) in Xenopus laevis oocytes; type: functional, cell-based; conditions: oocyte

For COc1cc(C)c(S(=O)(=O)N[C@@H](CC(=O)O)C(=O)N[C@H](Cc2ccc(C(=N)N)cc2)C(=O)N2CCCCC2)c(C)c1C, the Activity [1] was “inhibitor [+]”.
With C[C@@H]1Cc2c(Cl)cc(C(=O)N[C@@H](Cc3ccccc3)C(=O)O)c(O)c2C(=O)O1 [3R14S-OCHRATOXIN A] the Km [2] was 16.6 µM.
C[C@]12CC[C@@H]3c4ccc(OS(=O)(=O)O)cc4CC[C@H]3[C@@H]1CCC2=O [ESTRONE SULFURIC ACID] was tested, and the Activity [3] was “inhibitor [+]”.
C[C@H](CCC(=O)NCC(=O)O)[C@H]1CC[C@H]2[C@@H]3[C@H](O)C[C@@H]4C[C@H](O)CC[C@]4(C)[C@H]3C[C@H](O)[C@]12C [GLYCOCHOLIC ACID] was tested, and the Activity [4] was “inhibitor [+]”.
For O=C1OC(c2ccc(O)c(S(=O)(=O)[O-])c2)(c2ccc(O)c(S(=O)(=O)[O-])c2)c2c(Br)c(Br)c(Br)c(Br)c21.[Na+].[Na+] [SULFOBROMOPHTHALEIN SODIUM], the Activity [5] was “inhibitor [+]”.
